The values that follow come from patent US8916612B2, “Agmatine containing dietary supplements, nutraceuticals, and foods” (priority 2008, dated 2014).

The structures appear in SMILES notation.

The data set has as its system humans. In words: Open label dose-escalating safety and tolerability study of dietary agmatine sulfate capsules (Example I). Type of data set: in vivo, human. Particulars: for Adverse Effects (no. of participants): Nausea and Diarrhea: 12 participants. The protocol: This study is based on administration to humans weighing 60 to 70 kg.
Agmatine sulfate was manufactured according to international standards ISO 9001. It was encapsulated under cGMP (current Good Manufacturing Practice) conditions in gelatin-glycerin capsules as the sole active ingredient of the dietary supplement and the capsules packaged in properly labeled plastic container bottles.
The study was performed at Tel-Aviv Sourasky Medical Center, Israel and approved by the Institutional Review Board (Trial Number: 05-302) and by the Israel Ministry of Health National Review Board (Trial Number: 20050479), and conducted in accordance with the Helsinki guidelines under current Good Clinical Practice (cGCP) and the International Conference on Harmonization (ICH) guidelines. All procedures were performed after participants had read, understood and signed the informed consent form. Eligibility of consenting participants was determined after medical history recording, comprehensive clinical examination, and laboratory tests of blood samples to ensure inclusion/exclusion criteria.
Inclusion Criteria: 1) Men and women 18-75 years of age, including also those diagnosed with spine skeletal pathologies causing nerve compression. 2) Women must be non-pregnant, non-lactating, or sterilized, or postmenopausal. 3) All participants must give a signed informed consent.
Exclusion Criteria: 1) Those with any significant clinical, medical or surgical condition, such as: cardiovascular, pulmonary, hepatic, renal, immune, endocrine, metabolic, digestive, malignancy, or allergic, and those with deviations from the normal laboratory test values. 2) Those with any neuromuscular diseases (other than spine skeletal pathologies causing nerve compression). 3) Those with any neurological diseases. 4) Those with any history of alcohol or substance abuse within the last 2 years. 5) Those with gastric ulcer history. 6) Those who took any experimental drug within 90 days prior to screening. 7) Women who are pregnant or breast feeding. 8) Those participating in other clinical trials.
At the starting day of the study eligible participants began taking the supplement and had the option of receiving concomitantly any conventional treatment [e.g. drug treatment or physiotherapy] as needed for their welfare, and this was recorded throughout the duration of the study. However, any other experimental drug or dietary supplement was disallowed.
Table 1 details the escalating doses and regimens taken by the consecutive cohorts. Following screening to ensure inclusion/exclusion criteria, 48 men and women, 28 to 70 years old were recruited consecutively to the study after they gave a signed informed consent. Eligible participants took 3 times a day, after meals (morning, noontime and evening), the specified daily dose of agmatine sulfate capsules. Each capsule contained 445 mg of agmatine sulfate (Table 1).
Before beginning and within 5 days after termination—and before the next cohort began taking the supplement—all cohort participants underwent thorough clinical evaluation and routine laboratory tests of blood samples to ascertain normal function of the cardiovascular, hepatic, renal, immune and metabolic systems.
In-person evaluations were performed at: 11-15 days, 22-25 days, 40-45 days after treatment starting day (day 1), and then telephone interview evaluations every 3-6 months for the duration of the trial. The flow chart (2) outlined in FIG. 2 illustrates the treatment and follow-up schedules as exemplified for a 10-day cohort. In addition, participants received a “participant diary” for self recording of any outstanding health related events during the treatment interval.
For the sake of privacy, all records and data were identified only by participants' code number. All “source data” documents were stored in individual patient files and kept at the clinical center by the principal investigator and copies are kept with the study sponsor. […]

The mark [1] stands for this setting: 4th Cohort, 3.560 g/day for 21 days.

Take `N=C(N)NCCCCN.O=S(=O)(O)O` [agmatine sulfate]: where the note is “3rd Cohort, 3.560 g/day for 10 days”, the “Adverse Effects (no. of participants): Nausea and Diarrhea” value worked out at 1. For the same compound, for the setting “3.560 g/day”, the “Onset of diarrhea and nausea during treatment” value lay in the range of 2 to 3 days; the “Time to disappearance of diarrhea and nausea after treatment cessation” value was not above 2 days. Further, under setting [1], the “Discontinuations - Due to Adverse Effects (no. of participants)” value came to 1; the “Free Will Discontinuations (no. of participants)” value is on record as 1; the “Adverse Effects (no. of participants): Nausea and Diarrhea” value was 2. The “Clinical examinations and laboratory analyses of blood samples” value (all 48 participants, 1.335-3.560 g/day) is “no abnormality in any parameter studied”. Under “of 48 participants”, the “Number of participants who failed to complete the study” value is on record as 2. Also, the “Number of participants reporting mild-to-moderate side effects (diarrhea and nausea)” value (of 48 participants, all at 3.560 g/day) was found to be 3. Besides, the Adverse effects result (oral doses of up to 3.56 g/day) was “only mild, reversible diarrhea was observed”.
